# Reference: ChEMBL document CHEMBL1201862, “PubChem BioAssay data set” (2004)
#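 Where inhibition never reached the appropriate level, the endpoint shown equals the highest concentration tested. Otherwise, values were interpolated linearly from a five-concentration, 48-hour dose response in 96-well plates. Here, GI50 denotes the concentration required for 50% inhibition of growth.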 Calls of active or inactive are those of the source. No stated cut-off is given here; in the data, active = GI50 up to about 1.1 µM and inactive = higher.
# What was measured:
# Assay in all cases: growth of human tumour cells (NCI), 48 h
# SF-268 = tested on: SF-268
# SK-MEL-5 = tested on: SK-MEL-5
# HOP-62 = tested on: HOP-62
# A549 = tested on: A549
# MOLT-4 = tested on: MOLT-4
# OVCAR-3 = tested on: OVCAR-3
# ACHN = tested on: ACHN
# NCI-H226 = tested on: NCI-H226
# HCT-116 = tested on: HCT-116
# IGROV-1 = tested on: IGROV-1
# DLD-1 = tested on: DLD-1
# SK-OV-3 = tested on: SK-OV-3
# COLO 205 = tested on: COLO 205
# SF-539 = tested on: SF-539
# SN12C = tested on: SN12C
# SF-295 = tested on: SF-295
# PC-3 = tested on: PC-3
# MCF7 = tested on: MCF7
# A498 = tested on: A498
# M14 = tested on: M14
Compound,GI50 (SF-268),GI50 (SK-MEL-5),GI50 (HOP-62),GI50 (A549),GI50 (MOLT-4),GI50 (OVCAR-3),GI50 (ACHN),GI50 (NCI-H226),GI50 (HCT-116),GI50 (IGROV-1),GI50 (DLD-1),GI50 (SK-OV-3),GI50 (COLO 205),GI50 (SF-539),GI50 (SN12C),GI50 (SF-295),GI50 (PC-3),GI50 (MCF7),GI50 (A498),GI50 (M14)
C/C=C1\CN2CCc3c([nH]c4ccccc34)C2CC1C(=O)OC (stereo unspecified),> 322 µM (inactive),> 322 µM (inactive),> 322 µM (inactive),> 322 µM (inactive),> 322 µM (inactive),> 322 µM (inactive),> 322 µM (inactive),> 322 µM (inactive),> 322 µM (inactive),> 322 µM (inactive),> 322 µM (inactive),> 322 µM (inactive),> 322 µM (inactive),> 322 µM (inactive),> 322 µM (inactive),> 322 µM (inactive),,,,
Cc1cc(C)cc(C(=N)c2ccccc2Cc2cccc3ccccc23)c1,15.9 µM (inactive),16.6 µM (inactive),18 µM (inactive),16 µM (inactive),9.64 µM (inactive),18.7 µM (inactive),16.6 µM (inactive),14.6 µM (inactive),10.1 µM (inactive),17.4 µM (inactive),,17.5 µM (inactive),21.3 µM (inactive),16.1 µM (inactive),17.7 µM (inactive),11 µM (inactive),45.8 µM (inactive),16.2 µM (inactive),27.9 µM (inactive),16.5 µM (inactive)
c1ccc(CSc2nc(N3CCCCC3)c3cn[nH]c3n2)cc1,23.8 µM (inactive),16.5 µM (inactive),17.1 µM (inactive),27.4 µM (inactive),49.1 µM (inactive),24.5 µM (inactive),27.2 µM (inactive),18.8 µM (inactive),19.2 µM (inactive),17.5 µM (inactive),,36.6 µM (inactive),23 µM (inactive),18.4 µM (inactive),19.7 µM (inactive),24.9 µM (inactive),22.5 µM (inactive),26.9 µM (inactive),15.6 µM (inactive),19.8 µM (inactive)
CC(/C=C/C(=O)NO)=C\C(C)C(=O)c1ccc(N(C)C)cc1 (stereo unspecified),0.0309 µM (active),0.0313 µM (active),0.0391 µM (active),< 0.0122 µM (active),< 0.0135 µM (active),0.0119 µM (active),0.0231 µM (active),0.188 µM (active),< 0.01 µM (active),0.0259 µM (active),,0.0498 µM (active),0.0209 µM (active),0.0267 µM (active),0.0605 µM (active),0.0951 µM (active),0.0156 µM (active),< 0.01 µM (active),0.0841 µM (active),0.0668 µM (active)
NC(=O)C/C=C/CC(N)=O,> 100 µM (inactive),> 100 µM (inactive),> 100 µM (inactive),> 100 µM (inactive),0.259 µM (active),> 100 µM (inactive),> 100 µM (inactive),> 100 µM (inactive),> 100 µM (inactive),> 100 µM (inactive),,> 100 µM (inactive),> 100 µM (inactive),> 100 µM (inactive),> 100 µM (inactive),> 100 µM (inactive),> 100 µM (inactive),> 100 µM (inactive),> 100 µM (inactive),> 100 µM (inactive)
CC(O)c1nc(C#N)c(N)o1 (stereo unspecified),> 100 µM (inactive),> 100 µM (inactive),> 100 µM (inactive),> 100 µM (inactive),> 100 µM (inactive),> 100 µM (inactive),> 100 µM (inactive),> 100 µM (inactive),> 100 µM (inactive),> 100 µM (inactive),,> 100 µM (inactive),> 100 µM (inactive),> 100 µM (inactive),> 100 µM (inactive),> 100 µM (inactive),> 100 µM (inactive),> 100 µM (inactive),> 100 µM (inactive),> 100 µM (inactive)
CCOC(=O)c1nc2ccccc2nc1Oc1ccc(C#N)cc1,> 100 µM (inactive),> 100 µM (inactive),> 100 µM (inactive),> 100 µM (inactive),> 100 µM (inactive),> 100 µM (inactive),> 100 µM (inactive),> 100 µM (inactive),> 100 µM (inactive),> 100 µM (inactive),,> 100 µM (inactive),> 100 µM (inactive),> 100 µM (inactive),> 100 µM (inactive),> 100 µM (inactive),> 100 µM (inactive),> 100 µM (inactive),> 100 µM (inactive),> 100 µM (inactive)
CCCCC/C=C\C=C\CCCCCCCCC(=O)OC,> 100 µM (inactive),24 µM (inactive),> 100 µM (inactive),> 100 µM (inactive),> 100 µM (inactive),> 100 µM (inactive),> 100 µM (inactive),> 100 µM (inactive),> 100 µM (inactive),> 100 µM (inactive),,> 100 µM (inactive),> 100 µM (inactive),> 100 µM (inactive),> 100 µM (inactive),> 100 µM (inactive),> 100 µM (inactive),> 100 µM (inactive),> 100 µM (inactive),> 100 µM (inactive)
COc1cc2nc3n(c(=O)c2cc1OC)CCCCC3,> 100 µM (inactive),> 100 µM (inactive),> 100 µM (inactive),> 100 µM (inactive),> 100 µM (inactive),> 100 µM (inactive),> 100 µM (inactive),> 100 µM (inactive),> 100 µM (inactive),> 100 µM (inactive),,> 100 µM (inactive),> 100 µM (inactive),> 10 µM (inactive),> 100 µM (inactive),> 100 µM (inactive),> 100 µM (inactive),> 100 µM (inactive),> 100 µM (inactive),> 100 µM (inactive)
CC(C)(C)n1c(=O)n2n(c1=O)C1c3cccc4cccc(c34)C2C2c3cccc4cccc(c34)C1n1c(=O)n(C(C)(C)C)c(=O)n12,53.8 µM (inactive),> 100 µM (inactive),67.3 µM (inactive),78.3 µM (inactive),61 µM (inactive),16.3 µM (inactive),61.4 µM (inactive),84.1 µM (inactive),61.9 µM (inactive),21.7 µM (inactive),,96.8 µM (inactive),> 100 µM (inactive),41.4 µM (inactive),> 100 µM (inactive),80.4 µM (inactive),59.8 µM (inactive),> 100 µM (inactive),> 100 µM (inactive),> 100 µM (inactive)
CCOC(=O)c1ccc(/N=C2\Sc3nc4ccccc4n3\C2=N\c2ccc(C(=O)OCC)cc2)cc1,22.3 µM (inactive),25.9 µM (inactive),21.5 µM (inactive),25.2 µM (inactive),9.77 µM (inactive),12.9 µM (inactive),22.3 µM (inactive),29.2 µM (inactive),6.58 µM (inactive),19.5 µM (inactive),,40.8 µM (inactive),38.5 µM (inactive),21 µM (inactive),40.6 µM (inactive),16.2 µM (inactive),37.7 µM (inactive),8.83 µM (inactive),34.3 µM (inactive),16 µM (inactive)
